Literature values in JPH06128153A, “トラニラスト軟膏組成物およびその製造方法” (Kissei Pharmaceutical Co Ltd, priority 1992, dated 1994).
Like-named read-outs stand apart in the source and are kept apart here.

Conditions: stated as known, no test described

| Compound | solubility in water (ナトリウム塩) | solubility in water |
| --- | --- | --- |
| COc1ccc(/C=C/C(=O)Nc2ccccc2C(=O)O)cc1OC [ナトリウム塩] | わずかしか溶解しない |  |
| COc1ccc(/C=C/C(=O)Nc2ccccc2C(=O)O)cc1OC [トラニラスト] |  | 極めて難溶 |
